What was measured:
Test in all cases: KINOMEscan competition binding
Settings in all cases: compound 1.0 µM
[1] = biological target: MAPK8 (human) (UniProt P45983)
[2] = biological target: MARK1 (human) (UniProt Q9P0L2)
[3] = tested on: MET (human), P08581 [Y1235D]
[4] = biological target: PLK2 (human) (UniProt Q9NYY3)
[5] = biological target: MAPK6 (human) (UniProt Q16659)
[6] = biological target: PDGFRB (human) (UniProt P09619)
[7] = biological target: TNIK (human) (UniProt Q9UKE5)
[8] = biological target: ULK3 (human) (UniProt Q6PHR2)
[9] = biological target: LCK (human) (UniProt P06239)
[10] = biological target: PIM1 (human) (UniProt P11309)
PIM1 (human), sequence (P11309 whole entry, looked up): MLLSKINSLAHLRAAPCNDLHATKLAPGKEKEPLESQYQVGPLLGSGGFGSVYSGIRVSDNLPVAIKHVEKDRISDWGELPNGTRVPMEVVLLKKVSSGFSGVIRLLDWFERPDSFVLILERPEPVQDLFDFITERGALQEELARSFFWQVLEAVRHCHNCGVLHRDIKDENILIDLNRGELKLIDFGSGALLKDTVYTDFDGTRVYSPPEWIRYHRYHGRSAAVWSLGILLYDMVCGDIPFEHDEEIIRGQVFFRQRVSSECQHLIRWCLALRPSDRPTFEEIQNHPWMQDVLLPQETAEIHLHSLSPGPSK

[11] = biological target: EPHB4 (human) (UniProt P54760)
[12] = biological target: OXSR1 (human) (UniProt O95747)
[13] = biological target: PRKD2 (human) (UniProt Q9BZL6)
[14] = biological target: PRKG1 (human) (UniProt Q13976)
[15] = biological target: MERTK (human) (UniProt Q12866)
MERTK (human), sequence (Q12866 whole entry, looked up): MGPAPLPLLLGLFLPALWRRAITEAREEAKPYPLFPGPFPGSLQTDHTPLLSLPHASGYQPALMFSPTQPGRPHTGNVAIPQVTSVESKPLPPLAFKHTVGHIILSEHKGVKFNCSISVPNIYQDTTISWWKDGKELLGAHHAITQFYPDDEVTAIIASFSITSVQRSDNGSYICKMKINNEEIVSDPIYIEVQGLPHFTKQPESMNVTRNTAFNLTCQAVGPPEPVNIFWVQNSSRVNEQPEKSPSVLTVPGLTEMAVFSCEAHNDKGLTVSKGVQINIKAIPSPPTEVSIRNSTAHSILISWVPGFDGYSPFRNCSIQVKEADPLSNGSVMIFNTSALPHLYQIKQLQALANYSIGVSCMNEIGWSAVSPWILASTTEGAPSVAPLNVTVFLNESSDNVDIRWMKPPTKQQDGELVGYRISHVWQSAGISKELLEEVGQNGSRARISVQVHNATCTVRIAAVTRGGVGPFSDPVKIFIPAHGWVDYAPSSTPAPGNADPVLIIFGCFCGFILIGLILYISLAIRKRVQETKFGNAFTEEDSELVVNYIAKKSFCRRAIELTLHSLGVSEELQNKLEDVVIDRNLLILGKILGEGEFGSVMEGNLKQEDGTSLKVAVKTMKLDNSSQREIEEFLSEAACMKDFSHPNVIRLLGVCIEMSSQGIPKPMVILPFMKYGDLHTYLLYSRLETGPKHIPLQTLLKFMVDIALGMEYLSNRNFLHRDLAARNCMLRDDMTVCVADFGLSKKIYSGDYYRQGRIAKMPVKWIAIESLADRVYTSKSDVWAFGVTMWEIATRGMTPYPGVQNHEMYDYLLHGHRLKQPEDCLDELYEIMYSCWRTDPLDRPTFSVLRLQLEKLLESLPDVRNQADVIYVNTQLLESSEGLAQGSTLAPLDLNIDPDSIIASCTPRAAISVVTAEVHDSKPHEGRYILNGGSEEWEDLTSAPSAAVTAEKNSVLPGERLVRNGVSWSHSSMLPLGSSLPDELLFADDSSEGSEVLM

[16] = biological target: CDK4 CCND3 (human) (UniProt P11802+P30281)
[17] = biological target: TYK2 JH2 pseudokinase (human) (UniProt P29597)
[18] = biological target: EPHA8 (human) (UniProt P29322)
[19] = biological target: ACVR2B (human) (UniProt Q13705)
[20] = biological target: NTRK3 (human) (UniProt Q16288)
[21] = biological target: CDK9 (human) (UniProt P50750)
CDK9 (human), sequence (P50750 whole entry, looked up): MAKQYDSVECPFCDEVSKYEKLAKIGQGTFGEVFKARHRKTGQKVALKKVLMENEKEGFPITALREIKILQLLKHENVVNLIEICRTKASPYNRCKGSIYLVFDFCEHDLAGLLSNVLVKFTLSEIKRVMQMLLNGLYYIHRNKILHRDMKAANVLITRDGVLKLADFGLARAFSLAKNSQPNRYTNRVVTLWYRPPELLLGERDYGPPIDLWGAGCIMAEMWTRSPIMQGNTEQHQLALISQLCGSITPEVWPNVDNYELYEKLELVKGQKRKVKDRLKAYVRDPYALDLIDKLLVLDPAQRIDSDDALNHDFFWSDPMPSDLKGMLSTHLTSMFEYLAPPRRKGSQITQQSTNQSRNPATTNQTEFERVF

[22] = biological target: TEC (human) (UniProt P42680)
[23] = biological target: AKT2 (human) (UniProt P31751)
[24] = biological target: STK10 (human) (UniProt O94804)
[25] = biological target: EPHA5 (human) (UniProt P54756)
[26] = biological target: PAK4 (human) (UniProt O96013)
[27] = biological target: CHEK2 (human) (UniProt O96017)
[28] = biological target: HIPK2 (human) (UniProt Q9H2X6)
[29] = biological target: MAP3K7 (human) (UniProt O43318)
[30] = biological target: NEK3 (human) (UniProt P51956)
[31] = biological target: TBK1 (human) (UniProt Q9UHD2)
[32] = biological target: TSSK1B (human) (UniProt Q9BXA7)
[33] = biological target: MAP2K4 (human) (UniProt P45985)
[34] = tested on: PIK3CA (human), P42336 [E542K]
[35] = biological target: PRKG2 (human) (UniProt Q13237)
PRKG2 (human), sequence (Q13237 whole entry, looked up): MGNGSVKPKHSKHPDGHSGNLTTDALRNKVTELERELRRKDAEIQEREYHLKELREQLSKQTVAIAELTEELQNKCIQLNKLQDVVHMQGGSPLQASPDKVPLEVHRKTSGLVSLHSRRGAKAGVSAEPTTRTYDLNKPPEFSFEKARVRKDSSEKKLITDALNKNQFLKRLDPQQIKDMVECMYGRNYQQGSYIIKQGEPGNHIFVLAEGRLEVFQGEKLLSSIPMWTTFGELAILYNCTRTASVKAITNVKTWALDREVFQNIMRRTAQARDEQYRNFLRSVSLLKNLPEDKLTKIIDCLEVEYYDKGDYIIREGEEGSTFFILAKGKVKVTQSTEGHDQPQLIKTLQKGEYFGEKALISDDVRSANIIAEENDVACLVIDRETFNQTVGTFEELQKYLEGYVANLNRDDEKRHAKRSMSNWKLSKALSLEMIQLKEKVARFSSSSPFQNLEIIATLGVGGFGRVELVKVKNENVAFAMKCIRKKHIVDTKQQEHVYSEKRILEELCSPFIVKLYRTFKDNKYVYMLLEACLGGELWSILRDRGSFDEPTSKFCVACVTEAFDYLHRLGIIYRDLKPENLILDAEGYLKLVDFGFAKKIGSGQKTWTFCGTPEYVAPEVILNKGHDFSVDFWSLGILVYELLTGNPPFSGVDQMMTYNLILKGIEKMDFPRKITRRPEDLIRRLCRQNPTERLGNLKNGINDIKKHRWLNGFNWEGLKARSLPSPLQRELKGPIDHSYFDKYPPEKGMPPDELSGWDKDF

[36] = tested on: RET (human), P07949 [V804L]
RET (human), P07949 [V804L], sequence (P07949 whole entry V804L, looked up): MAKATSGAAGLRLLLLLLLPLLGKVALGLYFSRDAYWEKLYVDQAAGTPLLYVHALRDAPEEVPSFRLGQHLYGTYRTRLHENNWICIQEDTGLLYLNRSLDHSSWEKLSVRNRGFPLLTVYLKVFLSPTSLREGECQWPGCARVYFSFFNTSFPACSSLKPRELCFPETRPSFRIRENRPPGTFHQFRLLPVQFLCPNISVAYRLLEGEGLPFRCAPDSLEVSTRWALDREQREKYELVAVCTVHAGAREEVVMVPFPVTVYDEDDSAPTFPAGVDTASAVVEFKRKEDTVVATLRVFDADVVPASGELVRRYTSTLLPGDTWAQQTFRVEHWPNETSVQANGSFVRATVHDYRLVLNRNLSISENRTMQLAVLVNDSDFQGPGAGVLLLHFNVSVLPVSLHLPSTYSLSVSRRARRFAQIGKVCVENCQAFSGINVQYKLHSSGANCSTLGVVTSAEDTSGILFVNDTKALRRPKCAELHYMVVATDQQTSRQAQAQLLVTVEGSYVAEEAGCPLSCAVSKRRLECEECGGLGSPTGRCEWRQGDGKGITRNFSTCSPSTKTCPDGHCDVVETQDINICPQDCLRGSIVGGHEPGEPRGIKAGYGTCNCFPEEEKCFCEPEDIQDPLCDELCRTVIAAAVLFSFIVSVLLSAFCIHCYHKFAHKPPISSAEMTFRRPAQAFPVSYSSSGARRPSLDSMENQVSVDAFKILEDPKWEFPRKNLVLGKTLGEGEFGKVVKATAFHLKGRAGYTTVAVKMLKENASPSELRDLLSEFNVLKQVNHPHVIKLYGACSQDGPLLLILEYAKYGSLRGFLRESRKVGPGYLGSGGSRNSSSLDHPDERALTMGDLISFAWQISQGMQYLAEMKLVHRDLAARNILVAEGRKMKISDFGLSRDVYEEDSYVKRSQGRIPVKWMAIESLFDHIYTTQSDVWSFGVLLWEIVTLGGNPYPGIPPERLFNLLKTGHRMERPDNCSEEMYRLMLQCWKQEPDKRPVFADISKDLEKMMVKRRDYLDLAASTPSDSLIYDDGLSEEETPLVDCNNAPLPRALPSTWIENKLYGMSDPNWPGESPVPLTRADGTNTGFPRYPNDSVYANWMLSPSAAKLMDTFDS

[37] = biological target: FES (human) (UniProt P07332)
[38] = biological target: PRKX (human) (UniProt P51817)
[39] = tested on: EGFR (human), P00533 [752-759 del]
[40] = biological target: NEK4 (human) (UniProt P51957)
[41] = biological target: DYRK2 (human) (UniProt Q92630)

PLK2 (human), sequence (Q9NYY3 whole entry, looked up): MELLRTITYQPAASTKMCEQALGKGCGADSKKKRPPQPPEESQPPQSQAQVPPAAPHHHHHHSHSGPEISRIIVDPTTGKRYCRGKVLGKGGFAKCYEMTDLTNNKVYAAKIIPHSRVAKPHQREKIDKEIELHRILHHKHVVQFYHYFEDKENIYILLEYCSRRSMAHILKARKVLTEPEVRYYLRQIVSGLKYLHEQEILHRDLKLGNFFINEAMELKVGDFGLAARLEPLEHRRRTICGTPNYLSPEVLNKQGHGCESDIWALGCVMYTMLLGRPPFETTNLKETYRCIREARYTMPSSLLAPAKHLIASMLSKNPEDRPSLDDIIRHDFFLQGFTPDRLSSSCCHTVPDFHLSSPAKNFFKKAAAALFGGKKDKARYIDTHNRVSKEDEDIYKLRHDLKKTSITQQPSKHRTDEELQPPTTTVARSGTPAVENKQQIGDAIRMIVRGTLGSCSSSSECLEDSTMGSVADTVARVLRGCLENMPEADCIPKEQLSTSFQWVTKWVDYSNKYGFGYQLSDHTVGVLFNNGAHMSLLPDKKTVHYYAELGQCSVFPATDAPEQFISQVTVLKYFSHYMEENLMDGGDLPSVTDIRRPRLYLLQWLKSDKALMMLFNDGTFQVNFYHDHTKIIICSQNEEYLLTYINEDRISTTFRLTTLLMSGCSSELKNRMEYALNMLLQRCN
MARK1 (human), sequence (Q9P0L2 whole entry, looked up): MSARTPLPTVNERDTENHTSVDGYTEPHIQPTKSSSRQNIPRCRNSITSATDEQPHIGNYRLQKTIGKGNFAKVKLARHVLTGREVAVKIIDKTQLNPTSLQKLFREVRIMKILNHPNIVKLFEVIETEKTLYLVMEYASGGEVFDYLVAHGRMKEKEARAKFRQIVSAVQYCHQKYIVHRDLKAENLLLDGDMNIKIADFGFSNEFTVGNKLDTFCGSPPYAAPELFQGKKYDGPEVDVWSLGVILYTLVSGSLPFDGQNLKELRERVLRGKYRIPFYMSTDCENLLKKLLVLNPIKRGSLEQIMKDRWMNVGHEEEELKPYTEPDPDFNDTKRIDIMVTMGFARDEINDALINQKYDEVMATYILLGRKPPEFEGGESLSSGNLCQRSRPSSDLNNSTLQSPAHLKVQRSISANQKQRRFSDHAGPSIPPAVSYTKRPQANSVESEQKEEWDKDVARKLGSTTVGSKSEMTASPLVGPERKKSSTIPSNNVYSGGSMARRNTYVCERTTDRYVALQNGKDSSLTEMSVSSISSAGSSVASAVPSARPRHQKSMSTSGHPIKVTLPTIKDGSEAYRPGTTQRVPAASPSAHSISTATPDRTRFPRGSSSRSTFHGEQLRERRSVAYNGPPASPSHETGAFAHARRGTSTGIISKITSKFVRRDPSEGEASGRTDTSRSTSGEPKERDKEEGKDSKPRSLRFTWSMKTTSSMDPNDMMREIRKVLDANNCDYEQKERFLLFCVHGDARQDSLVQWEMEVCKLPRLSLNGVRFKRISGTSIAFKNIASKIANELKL

In the case of `COCCNCCCn1c(C(=O)CF)c(-c2ccc(C)cc2)c2c(N)ncnc21`, the kinase still bound, per cent of control [1] is reported as 96%, the kinase still bound, per cent of control [2] is reported as 90% and the kinase still bound, per cent of control [3] is reported as 81%. The kinase still bound, per cent of control [4] was 96%, the kinase still bound, per cent of control [5] was 100% and the kinase still bound, per cent of control [6] was 68%. The kinase still bound, per cent of control [7] was 95%, the kinase still bound, per cent of control [8] was 99% and the kinase still bound, per cent of control [9] was 65%. For the same compound, the kinase still bound, per cent of control [10] was 100%, the kinase still bound, per cent of control [11] was 89% and the kinase still bound, per cent of control [12] was 100%. The kinase still bound, per cent of control [13] was 100%, the kinase still bound, per cent of control [14] was 100% and the kinase still bound, per cent of control [15] was 99%. For the same compound, the kinase still bound, per cent of control [16] was 100%, the kinase still bound, per cent of control [17] was 100% and the kinase still bound, per cent of control [18] was 75%. For the same compound, the kinase still bound, per cent of control [19] was 95%, the kinase still bound, per cent of control [20] was 91% and the kinase still bound, per cent of control [21] was 100%. It also gave a kinase still bound, per cent of control [22] of 100%, a kinase still bound, per cent of control [23] of 95% and a kinase still bound, per cent of control [24] of 100%. The kinase still bound, per cent of control [25] was 91%, the kinase still bound, per cent of control [26] was 92% and the kinase still bound, per cent of control [27] was 100%. It also gave a kinase still bound, per cent of control [28] of 94%, a kinase still bound, per cent of control [29] of 100% and a kinase still bound, per cent of control [30] of 70%. It also gave a kinase still bound, per cent of control [31] of 100%, a kinase still bound, per cent of control [32] of 100% and a kinase still bound, per cent of control [33] of 78%. For the same compound, the kinase still bound, per cent of control [34] was 100%, the kinase still bound, per cent of control [35] was 98% and the kinase still bound, per cent of control [36] was 100%. It also gave a kinase still bound, per cent of control [37] of 100%, a kinase still bound, per cent of control [38] of 80% and a kinase still bound, per cent of control [39] of 90%. For the same compound, the kinase still bound, per cent of control [40] was 100% and the kinase still bound, per cent of control [41] was 89%.

From the kinase profiling compilation of Christmann-Franck et al. (2016)
